Assay results: the CheMixHub viscosity set
Values joined by “and” are separate entries in the source; they are usually repeats but may differ in a detail not shown here. Equal entries are not always repeated.

Test: xn = mol fraction of the nth substance listed

[Cl-].[K+] + O
Conditions | viscosity
293.15 K, 101 kPa, x1 = 0.005905 | 0.9971 mPa·s and 0.9972 mPa·s
293.15 K, 101 kPa, x1 = 0.009253 | 0.9943 mPa·s
293.15 K, 101 kPa, x1 = 0.01811 | 0.9892 mPa·s and 0.989 mPa·s
293.15 K, 101 kPa, x1 = 0.02711 | 0.9882 mPa·s and 0.9881 mPa·s
293.15 K, 101 kPa, x1 = 0.03656 | 0.9913 mPa·s
293.15 K, 101 kPa, x1 = 0.0468 | 0.9995 mPa·s and 0.9994 mPa·s
293.15 K, 101 kPa, x1 = 0.07583 | 1.047 mPa·s
297.65 K, 100 kPa, x1 = 0.02628 | 0.905 mPa·s and 0.904 mPa·s
298.15 K, 100 kPa, x1 = 0.05933 | 0.932 mPa·s and 0.933 mPa·s
298.15 K, 101 kPa, x1 = 0.005905 | 0.8895 mPa·s
298.15 K, 101 kPa, x1 = 0.009253 | 0.8885 mPa·s and 0.8886 mPa·s
298.15 K, 101 kPa, x1 = 0.01811 | 0.8883 mPa·s and 0.8882 mPa·s
298.15 K, 101 kPa, x1 = 0.02711 | 0.8911 mPa·s and 0.891 mPa·s
298.15 K, 101 kPa, x1 = 0.0468 | 0.908 mPa·s and 0.9079 mPa·s
298.15 K, 101 kPa, x1 = 0.05806 | 0.9238 mPa·s
298.15 K, 101 kPa, x1 = 0.06612 | 0.9378 mPa·s and 0.9377 mPa·s
298.15 K, 101 kPa, x1 = 0.07583 | 0.9577 mPa·s and 0.9576 mPa·s
298.15 K, 101.3 kPa, x1 = 0.00072 | 0.8908 mPa·s
298.15 K, 101.3 kPa, x1 = 0.00162 | 0.8906 mPa·s
298.15 K, 101.3 kPa, x1 = 0.002874 | 0.8911 mPa·s
298.15 K, 101.3 kPa, x1 = 0.004484 | 0.8895 mPa·s
298.15 K, 101.3 kPa, x1 = 0.007154 | 0.8891 mPa·s
298.15 K, 101.3 kPa, x1 = 0.01245 | 0.8885 mPa·s
298.15 K, 101.3 kPa, x1 = 0.0177 | 0.8882 mPa·s
299.15 K, 100 kPa, x1 = 0.07333 | 0.95 mPa·s and 0.949 mPa·s
299.65 K, 100 kPa, x1 = 0.04316 | 0.888 mPa·s
300.15 K, 100 kPa, x1 = 0.008975 | 0.86 mPa·s and 0.858 mPa·s
303.15 K, 101 kPa, x1 = 0.005905 | 0.7997 mPa·s
303.15 K, 101 kPa, x1 = 0.009253 | 0.8005 mPa·s and 0.8003 mPa·s
303.15 K, 101 kPa, x1 = 0.01811 | 0.8034 mPa·s and 0.8032 mPa·s
303.15 K, 101 kPa, x1 = 0.03656 | 0.8174 mPa·s
303.15 K, 101 kPa, x1 = 0.0468 | 0.8296 mPa·s and 0.8294 mPa·s
303.15 K, 101 kPa, x1 = 0.05806 | 0.8467 mPa·s and 0.8466 mPa·s
303.15 K, 101 kPa, x1 = 0.06612 | 0.8611 mPa·s and 0.8612 mPa·s
303.15 K, 101 kPa, x1 = 0.07583 | 0.8802 mPa·s and 0.8799 mPa·s
307.15 K, 100 kPa, x1 = 0.05933 | 0.798 mPa·s and 0.799 mPa·s
308.15 K, 100 kPa, x1 = 0.05933 | 0.793 mPa·s and 0.794 mPa·s
308.15 K, 101.3 kPa, x1 = 0.00072 | 0.7204 mPa·s
308.15 K, 101.3 kPa, x1 = 0.00162 | 0.721 mPa·s
308.15 K, 101.3 kPa, x1 = 0.007154 | 0.7241 mPa·s
308.15 K, 101.3 kPa, x1 = 0.01245 | 0.7273 mPa·s
308.15 K, 101.3 kPa, x1 = 0.0177 | 0.7305 mPa·s
308.65 K, 100 kPa, x1 = 0.02628 | 0.738 mPa·s and 0.737 mPa·s
308.65 K, 100 kPa, x1 = 0.04316 | 0.761 mPa·s and 0.759 mPa·s
309.15 K, 100 kPa, x1 = 0.008975 | 0.717 mPa·s
309.15 K, 100 kPa, x1 = 0.07333 | 0.805 mPa·s
313.15 K, 101 kPa, x1 = 0.005905 | 0.6585 mPa·s
313.15 K, 101 kPa, x1 = 0.009253 | 0.661 mPa·s
313.15 K, 101 kPa, x1 = 0.01811 | 0.6685 mPa·s and 0.6683 mPa·s
313.15 K, 101 kPa, x1 = 0.02711 | 0.6774 mPa·s
313.15 K, 101 kPa, x1 = 0.03656 | 0.6885 mPa·s
313.15 K, 101 kPa, x1 = 0.0468 | 0.7028 mPa·s
313.15 K, 101 kPa, x1 = 0.05806 | 0.7211 mPa·s
313.15 K, 101 kPa, x1 = 0.06612 | 0.7359 mPa·s
313.15 K, 101 kPa, x1 = 0.07583 | 0.7551 mPa·s
316.15 K, 100 kPa, x1 = 0.008975 | 0.629 mPa·s and 0.63 mPa·s
317.65 K, 100 kPa, x1 = 0.02628 | 0.631 mPa·s
317.65 K, 100 kPa, x1 = 0.05933 | 0.686 mPa·s
318.15 K, 100 kPa, x1 = 0.07333 | 0.705 mPa·s and 0.706 mPa·s
318.15 K, 101.3 kPa, x1 = 0.00072 | 0.5972 mPa·s
318.15 K, 101.3 kPa, x1 = 0.00162 | 0.5983 mPa·s
318.15 K, 101.3 kPa, x1 = 0.002874 | 0.6 mPa·s
318.15 K, 101.3 kPa, x1 = 0.004484 | 0.601 mPa·s
318.15 K, 101.3 kPa, x1 = 0.007154 | 0.6037 mPa·s
319.15 K, 100 kPa, x1 = 0.04316 | 0.643 mPa·s and 0.64 mPa·s
323.15 K, 101 kPa, x1 = 0.005905 | 0.554 mPa·s
323.15 K, 101 kPa, x1 = 0.01811 | 0.5673 mPa·s
323.15 K, 101 kPa, x1 = 0.02711 | 0.5782 mPa·s
323.15 K, 101 kPa, x1 = 0.0468 | 0.6058 mPa·s
323.15 K, 101 kPa, x1 = 0.05806 | 0.6242 mPa·s
323.15 K, 101 kPa, x1 = 0.06612 | 0.6389 mPa·s
323.15 K, 101 kPa, x1 = 0.07583 | 0.6575 mPa·s

BrCCBr + Cc1cccc(C)c1
101.33 kPa
Conditions | viscosity [mPa·s]
298.15 K, x1 = 0.1391 | 0.6538
298.15 K, x1 = 0.269 | 0.7069
298.15 K, x1 = 0.3835 | 0.8095
298.15 K, x1 = 0.4852 | 0.8843
298.15 K, x1 = 0.5776 | 1.002
298.15 K, x1 = 0.6789 | 1.064
298.15 K, x1 = 0.7684 | 1.191
298.15 K, x1 = 0.8458 | 1.307
298.15 K, x1 = 0.9257 | 1.447
308.15 K, x1 = 0.1463 | 0.587
308.15 K, x1 = 0.2621 | 0.6362
308.15 K, x1 = 0.3771 | 0.7044
308.15 K, x1 = 0.4834 | 0.764
308.15 K, x1 = 0.5853 | 0.8526
308.15 K, x1 = 0.6796 | 0.9345
308.15 K, x1 = 0.7697 | 1.018
308.15 K, x1 = 0.8516 | 1.143
308.15 K, x1 = 0.9254 | 1.259

BrCCBr + Cc1ccccc1
101.33 kPa
Conditions | viscosity [mPa·s]
298.15 K, x1 = 0.1229 | 0.6433
298.15 K, x1 = 0.2578 | 0.6736
298.15 K, x1 = 0.348 | 0.7383
298.15 K, x1 = 0.4549 | 0.8563
298.15 K, x1 = 0.5548 | 0.9001
298.15 K, x1 = 0.6537 | 1.015
298.15 K, x1 = 0.746 | 1.105
298.15 K, x1 = 0.8331 | 1.268
298.15 K, x1 = 0.9171 | 1.381
308.15 K, x1 = 0.1176 | 0.5499
308.15 K, x1 = 0.2377 | 0.6
308.15 K, x1 = 0.3568 | 0.6572
308.15 K, x1 = 0.4489 | 0.7283
308.15 K, x1 = 0.5524 | 0.8275
308.15 K, x1 = 0.652 | 0.9069
308.15 K, x1 = 0.7416 | 0.9937
308.15 K, x1 = 0.8319 | 1.111
308.15 K, x1 = 0.9144 | 1.233
